Source: patent publication US20260193188A1, “CRYSTALLINE POLYMORPH FORMS OF A TRPV1 ANTAGONIST AND FORMULATIONS THEREOF” (Bausch + Lomb Ireland Limited, priority 2022, published 2026)
In brackets after ≈: the same amount, converted by molar mass.

Legend:
[1] = molecular target: T1, human TRPV1 (Homo sapiens, UniProt Q8NER1); assay: FLIPR calcium assay to detect calcium influx in CHO-huTrpV1 cells (antagonism of NADA response); assay type: cell-based; conditions: stimulated with 2.5 μM NADA (EC80), FLIPR calcium 6, read-out: IC50, antagonist effect against human TRPV1
T1 construct: expressed in transfected cells; host or cells: CHO (Chinese Hamster Ovary) cells, geneticin-selected
Protocol: Chinese Hamster Ovary (CHO) cells transfected to express human TrpV1 receptor (which are herein referred to as CHO-huTrpV1 cells), were grown in F-12 Ham's Nutrient Mixture media (HyClone SH30026.01) supplemented with 10% Fetal Bovine Serum (Invitrogen #26140-079), 1% Antibiotic/antimycotic (Invitrogen #15240-062) and 500 μg/mL geneticin (ThermoFisher scientific #1031035). Cells were grown in T-75 flasks at 37° C. incubater with 5% CO2. The cells were passaged twice a week at a ratio of 1:10 to 1:20 to maintain steady growth. For experimentation, cells were harvarsted at approximately 80% confluency and plated onto 384 well black cell culture plates (cat #781091, Greinier Bio-One Inc.) at 15,000 cells per well in 20 μl media and grown overnight.
The loading dye was prepared following instruction of Calcium 6 assay kit ([…], #R8190): 10 ml buffer from bottle B was added to 1 vial of bottle A (adapted to room temperature from −20° C.) and mixed well, then 2.5 mM of fresh prepared probenecid was added and mixed well. 20 μl/well of loading dye was added on top of the cells, and incubated at 37° C. for 1 hour 30 min.
Assay buffer preparation: 1×HBSS, 2 mM HEPES, 0.1% BSA plus 2.5 mM freshly prepared probenecid (Invitrogen, #P36400). 25 μl/well assay buffer in 384 well clear plate (cat #782281, Greiner Bio-one) was dispensed with buffer distributor (Multidrop ComB1 from Thermo Scientific). The compounds were in 384 Echo plate (cat #LPL0200, Labcyte) and the starting concentration of compound was 10 mM, then 1 to 3 serial dilution in 100% DMSO, 8 ul/well). 125 nl compounds was transferred to the 384 well plate containing 25 μl/well buffer with Echo® 555 Liquid Handler (Labcyte), such that the compound concentration was 5 fold of final concentration. The plate was shook slowly at 40 rpm/min for 10 min to mix. […]
After compounds were added to the cell plate with loading dye, within 10-15 minutes, cell plate and plate containing NADA was placed into the FLIPR (Fluorescent Imaging Plate Reader) instrument (Tetra System, Molecular device). […]

[2] = Hygroscopicity by DVS; assay type: physicochemical
[3] = Solid form stability (humidity exposure, compression, grinding, granulation); assay type: physicochemical
[4] = Solubility in solvents; assay type: physicochemical; conditions: organic solvent or mixture
Protocol: Compound I is poorly soluble (between 1 and 25 mg/ml) in acetonitrile, dicholormethane, methyl-tert-butyl ether, nitromethane. In toluene and heptane, compound I is sparingly soluble (<1 mg/ml).

[5] = Hydrate formation on equilibration in aqueous fluid; assay type: physicochemical; conditions: equilibrated at 4° C. in water, methanol/water (33:67, 42:58), after 2 weeks and 4 weeks

T1 sequence (Q8NER1 whole entry): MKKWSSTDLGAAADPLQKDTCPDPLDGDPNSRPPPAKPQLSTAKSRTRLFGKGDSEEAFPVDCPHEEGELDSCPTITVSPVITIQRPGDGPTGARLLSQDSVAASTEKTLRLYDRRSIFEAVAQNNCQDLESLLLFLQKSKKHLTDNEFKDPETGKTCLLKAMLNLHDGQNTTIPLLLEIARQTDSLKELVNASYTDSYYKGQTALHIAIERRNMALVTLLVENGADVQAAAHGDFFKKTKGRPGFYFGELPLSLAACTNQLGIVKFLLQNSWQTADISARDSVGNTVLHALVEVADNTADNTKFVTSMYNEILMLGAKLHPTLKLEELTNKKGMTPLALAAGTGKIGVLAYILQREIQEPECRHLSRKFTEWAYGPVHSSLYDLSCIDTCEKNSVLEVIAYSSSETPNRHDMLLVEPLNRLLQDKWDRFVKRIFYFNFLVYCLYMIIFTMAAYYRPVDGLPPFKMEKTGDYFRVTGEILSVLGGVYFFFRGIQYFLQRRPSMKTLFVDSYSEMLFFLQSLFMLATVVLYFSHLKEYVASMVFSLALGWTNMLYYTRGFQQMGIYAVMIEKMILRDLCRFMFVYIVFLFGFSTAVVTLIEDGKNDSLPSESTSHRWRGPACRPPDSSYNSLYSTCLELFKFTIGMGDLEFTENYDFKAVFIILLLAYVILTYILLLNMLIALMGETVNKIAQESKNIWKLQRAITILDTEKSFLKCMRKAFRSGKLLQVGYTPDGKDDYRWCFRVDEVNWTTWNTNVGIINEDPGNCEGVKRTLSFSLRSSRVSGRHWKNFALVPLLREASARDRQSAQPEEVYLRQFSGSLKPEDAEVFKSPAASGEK

OC[C@H](O)c1cc(F)c(CN[C@H]2C[C@H](Oc3ccc(F)c(C(F)(F)F)c3)C2)c2ccncc12 [(R)-1-(6-fluoro-5-((((1r,3R)-3-(4-fluoro-3-(trifluoromethyl)phenoxy)cyclobutyl)amino)methyl)isoquinolin-8-yl)ethane-1,2-diol]
IC50 [1]: 6.3 nM

OC[C@@H](O)c1cc(F)c(CN[C@H]2C[C@H](Oc3ccc(F)c(C(F)(F)F)c3)C2)c2ccncc12 [Compound I Form A, (S)-1-(6-fluoro-5-((((1r,3S)-3-(4-fluoro-3-(trifluoromethyl)phenoxy)cyclobutyl)amino)methyl)isoquinolin-8-yl)ethane-1,2-diol]
Hygroscopicity by DVS ([2]; DVS): slightly hygroscopic
Solid state change after DVS ([2]; DVS up to 95% RH): no change in solid state
Water vapor absorbed ([2]; DVS, at 95% RH): approximately 0.4%
Change after humidity exposure ([3]; 92% RH for 24 h): did not result in change
Form change after compression ([3]; compression, only minor peak broadening): no form change
Form change under grinding and granulation ([3]; dry grinding and wet granulation with water and ethanol (XRPD, FIG. 4)): did not show form change

OCC(O)c1cc(F)c(CN[C@H]2C[C@H](Oc3ccc(F)c(C(F)(F)F)c3)C2)c2ccncc12 (mixture of isomers) [Example 1 (mixture of isomers), 1-(6-fluoro-5-((((1r,3r)-3-(4-fluoro-3-(trifluoromethyl)phenoxy)cyclobutyl)amino)methyl)isoquinolin-8-yl)ethane-1,2-diol]
IC50 [1]: 10.4 nM

OC[C@@H](O)c1cc(F)c(CN[C@H]2C[C@H](Oc3ccc(F)c(C(F)(F)F)c3)C2)c2ccncc12 (single isomer, unassigned)
IC50 [1]: 0.62 nM
solubility ([4]; organic solvents and alcohol/water mixtures, acetone, 1,4-dioxane, ethanol, ethyl acetate, isopropyl acetate, methanol, 2-methyl-2-butanol, tetrahydrofuran, 1-propanol/water (98.5:1.5), 2-propanol/water (96:4), methanol/water (78:22)): > 25 mg/mL
solubility ([4]; organic solvents, acetonitrile, dicholormethane, methyl-tert-butyl ether, nitromethane): 1 to 25 mg/mL (≈ 2.13 to 53.4 mM)
solubility ([4]; organic solvents, toluene and heptane): < 1 mg/mL
Hydrate formation [5]: not observed to form a hydrate
